{
  "source": "patent US10172824B2",
  "about": "“Crystal forms of scutellarin aglycone and preparation thereof” (YUNNAN INSTITUTE OF MATERIA MEDICA, priority 2014, dated 2019)",
  "key": {"[1]": {"conditions": "cited from earlier work; for substances detected in rat plasma: oral"}, "[2]": {"tested_on": "ischemia/reperfusion rats", "assay": "Evaluation of the degree of nerve function impairment (behavior score) in MCAO ischemia/reperfusion rats", "type": "in vivo, rat", "description": "SD male rat was fasted one night, with free access to water. At the day of experiment, the rat was anesthetized by intraperitoneal injection of 35% chloral hydrate (350 mg/kg), and fixed on its back. The skin was incised along the neck median line to expose the carotid artery at the right side, and the internal and external carotid artery were separated. 3# nylon wire (a diameter of 0.285 mm) was inserted from the free end of the external carotid artery, introduced into the internal carotid artery from the distal end of the external carotid artery, and inserted at the artery of Willis's circle in brain, to effectively occlude the middle cerebral artery. The inserted nylon wire was 18˜20 mm away from carotid artery bifurcation. The free end of the external carotid artery and the intra cavitary nylon wire were ligated, to prevent bleeding. […] After middle cerebral artery occlusion (MCAO) for 2 h, the nylon wire was carefully drawn out from the internal carotid artery, and the internal carotid artery was subjected to reperfusion. […] The animals were grouped depending on the score of nerve function. Three groups were classified in the experiment, 15 animals for each group. […] In the sham-operated group and the model control group, an equal volume of 0.3% sodium carboxymethyl cellulose (CMC-Na) was administered. […] 2.3.1 Evaluation of the degree of nerve function impairment: the behavioral disorder of the animal was scored by double blind method at 1 h (before administration), 12 h, 24 h, 36 h, 48 h after reperfusion, according to the score standards in the following table, so as to evaluate the degree of nerve function impairment, wherein the total score is 16, the higher the score is, the more serious the degree of nerve function impairment is in the animal (Li Qian, Wang Qiujuan, Guo Qinglong, Protective effect of TQ0701-2 on cerebral ischemia reperfusion injury in rats [J]. CHINESE JOURNAL OF CLINICAL PHARMACOLOGY AND THERAPEUTICS, 2010, 15(1): 36-40.) Data was processed by the statistical analysis software SPSS11.5, and the results were expressed by x±s, and mathematical statistics were performed by using t-test for normal distribution data and using rank-sum test for skewed distribution."}, "[3]": {"conditions": "compared with scutellarin; cited from earlier work"}, "[4]": {"tested_on": "MCAO-induced ischemia-reperfusion rat", "assay": "Cerebral infarction percentage 48 h after reperfusion (TTC staining) in MCAO ischemia/reperfusion rats", "type": "in vivo", "description": "SD male rat was fasted one night, with free access to water. At the day of experiment, the rat was anesthetized by intraperitoneal injection of 35% chloral hydrate (350 mg/kg), and fixed on its back. The skin was incised along the neck median line to expose the carotid artery at the right side, and the internal and external carotid artery were separated. 3# nylon wire (a diameter of 0.285 mm) was inserted from the free end of the external carotid artery, introduced into the internal carotid artery from the distal end of the external carotid artery, and inserted at the artery of Willis's circle in brain, to effectively occlude the middle cerebral artery. The inserted nylon wire was 18˜20 mm away from carotid artery bifurcation. The free end of the external carotid artery and the intra cavitary nylon wire were ligated, to prevent bleeding. […] After middle cerebral artery occlusion (MCAO) for 2 h, the nylon wire was carefully drawn out from the internal carotid artery, and the internal carotid artery was subjected to reperfusion. […] The animals were grouped depending on the score of nerve function. Three groups were classified in the experiment, 15 animals for each group. […] In the sham-operated group and the model control group, an equal volume of 0.3% sodium carboxymethyl cellulose (CMC-Na) was administered. […] The rat was decapitated and the brain was taken 48 h after reperfusion, and was quickly frozen. The brain was cut along the coronal plane to obtain a 2 mm-thick slice. The brain slice was put in 1% TTC stain solution, and stained at 37° C. in dark by incubation for 30 min. After fixing with 10% formaldehyde solution for 1 week, the digits and images were stored in computer by digital camera imaging system. The infarction area and the whole brain area were determined by Medical Microscopic image Compute-aided Analysis System (MIAS) of Image Center of Beihang University, and the cerebral infarction percentage was calculated (the percentage of the infarction area in the whole brain area). […]"}, "[5]": {"assay": "Stability of crystal forms", "conditions": "room temperature below 50° C."}, "[6]": {"conditions": "360 mg scutellarin orally to a subject, 5 h (blood collected at 1, 3, 5, 8 h; determined only at 5 h); cited from earlier work"}},
  "note": "Where two headings read alike, the source gives them in different places.",
  "data": [
    {"smiles": "O=c1cc(-c2ccc(O)cc2)oc2cc(O)c(O)c(O)c12", "note": "[scutellarin aglycone, 5,6,7-trihydroxy-2-(4-hydroxyphenyl)-4H-benzopyran-4-one]", "values": [
      {"measurement": "substances detected in rat plasma", "setting": "[1]; 20 mg/kg scutellarin aglycone", "value": "only scutellarin was detected"},
      {"measurement": "substances detected in rat plasma", "setting": "[1]; 200 mg/kg scutellarin aglycone", "value": "both scutellarin aglycone and scutellarin could be detected"},
      {"measurement": "metabolic stability", "setting": "[1]; rats, intragastric, relative to scutellarin", "value": "metabolically stable relative to scutellarin"},
      {"measurement": "improvement rate of nerve function disorder", "setting": "[2]; crystal form A, 45.8 mg/kg intragastric, 48 h, compared to model control group, P<0.05", "value": 34.97, "unit": "%"},
      {"measurement": "Behavior score at different time after reperfusion, 1 h", "setting": "[2]; ischemia/reperfusion rats, 45.8 mg/kg, 1 h after reperfusion (before administration), total score 16, x ± s, n = 15", "value": "10.57 ± 2.22"},
      {"measurement": "Behavior score at different time after reperfusion, 12 h", "setting": "[2]; ischemia/reperfusion rats, 45.8 mg/kg, 12 h after reperfusion, total score 16, x ± s, n = 15", "value": "7.96 ± 2.29"},
      {"measurement": "Behavior score at different time after reperfusion, 24 h", "setting": "[2]; ischemia/reperfusion rats, 45.8 mg/kg, 24 h after reperfusion, total score 16, x ± s, n = 15", "value": "7.15 ± 2.56"},
      {"measurement": "Behavior score at different time after reperfusion, 36 h", "setting": "[2]; ischemia/reperfusion rats, 45.8 mg/kg, 36 h after reperfusion, total score 16, x ± s, n = 15", "value": "6.23 ± 2.87"},
      {"measurement": "Behavior score at different time after reperfusion, 48 h", "setting": "[2]; ischemia/reperfusion rats, 45.8 mg/kg, 48 h after reperfusion, total score 16, x ± s, n = 15", "value": "5.69 ± 2.67"},
      {"measurement": "oral absorption relative to scutellarin", "setting": "[3]", "value": "about 3 fold"},
      {"measurement": "permeability in gastrointestinal tract", "setting": "[3]", "value": "higher permeability in gastrointestinal tract than scutellarin"},
      {"measurement": "reducing rate of cerebral infarction area", "setting": "[4]; crystal form A, 45.8 mg/kg intragastric, compared to model control group, P<0.05", "value": 42.46, "unit": "%"},
      {"measurement": "Cerebral infarction percentage (%)", "setting": "[4]; ischemia/reperfusion rats, 45.8 mg/kg, TTC stain, x ± s, n = 15", "value": "9.16 ± 0.09", "unit": "%"},
      {"measurement": "Reducing rate (%)", "setting": "[4]; reduction of cerebral infarction percentage compared to the model control group, 45.8 mg/kg", "value": 42.46, "unit": "%"}
    ]},
    {"smiles": "O=c1cc(-c2ccc(O)cc2)oc2cc(O)c(O)c(O)c12", "note": "[crystal form A, 5,6,7-trihydroxy-2-(4-hydroxyphenyl)-4H-benzopyran-4-one]", "values": [
      {"measurement": "stability of crystal form", "setting": "[5]", "value": "the most stable crystal forms"}
    ]},
    {"smiles": "O=C(O)[C@H]1O[C@@H](Oc2cc3oc(-c4ccc(O)cc4)cc(=O)c3c(O)c2O)[C@H](O)[C@@H](O)[C@@H]1O", "note": "[scutellarin]", "values": [
      {"measurement": "blood concentration of scutellarin", "setting": "[6]", "value": 20, "unit": "ng/mL"}
    ]}
  ]
}
